In patent US20190351069A1, “Coating of Nanoparticle Surfaces with Cyclopeptides for Improving Delivery of Agents Via the Oral Route” (Ruprecht-Karls-Universität Heidelberg, priority 2016, published 2019):
Where a SMILES comes first, the peptide text is derived from it.

Assay: Stability of cell-penetrating peptides in simulated gastric and intestinal fluid (HPLC/MS)
Assay type: in vitro ADME
Protocol: Both CPPs (1 mg/mL in water) were diluted 1:1 (v/v) with either simulated gastric fluid or simulated intestinal fluid and incubated at 37° C. under constant shaking as described in the art. After 0, 15, 30 and 60 min, the samples were analyzed by HPLC/MS in order to detect the recovery of intact CPP and were compared in relation with the initial solution. • Cytotoxicity Assays • Cell Cultivation

N=C(N)NCCC[C@@H]1NC(=O)[C@H](CS)NC(=O)[C@H](CCCNC(=N)N)NC(=O)[C@H](CCCNC(=N)N)NC(=O)[C@H](CCCNC(=N)N)NC(=O)[C@H](CCCNC(=N)N)NC(=O)[C@H](CCCNC(=N)N)NC(=O)[C@H](CCCNC(=N)N)NC(=O)[C@H](CCCNC(=N)N)NC(=O)[C@H](CCCNC(=N)N)NC1=O [cyclic CPP] (cyclo(RRRRRRRRRC); ring closure inferred)
stability in intestinal fluid (over one hour): only a moderate loss
stability in simulated gastric fluid (over one hour): high stability
remaining at 1 h, 0.5 mg/mL (simulated intestinal fluid, after one hour, 37° C., read-out: intact CPP): 47.3%
